Assays:
[1] = tested on: Tyrosine-protein kinase ABL1 (Homo sapiens), P00519 [T315I]; conditions: Compound concentration 1000.0 nM
[2] = molecular target: Bone morphogenetic protein receptor type-2 (Homo sapiens) (UniProt Q13873); conditions: Compound concentration 1000.0 nM
[3] = molecular target: Serine/threonine-protein kinase B-raf (Homo sapiens) (UniProt P15056); conditions: Compound concentration 1000.0 nM
[4] = molecular target: Serine/threonine-protein kinase BRSK1 (Homo sapiens) (UniProt Q8TDC3); conditions: Compound concentration 1000.0 nM
[5] = molecular target: Tyrosine-protein kinase BTK (Homo sapiens) (UniProt Q06187); conditions: Compound concentration 1000.0 nM
[6] = molecular target: Calcium/calmodulin-dependent protein kinase type 1B (Homo sapiens, UniProt Q6P2M8); conditions: Compound concentration 1000.0 nM
[7] = molecular target: Cyclin-dependent kinase 11A (Homo sapiens) (UniProt Q9UQ88); conditions: Compound concentration 1000.0 nM
[8] = molecular target: Megakaryocyte-associated tyrosine-protein kinase (Homo sapiens) (UniProt P42679); conditions: Compound concentration 1000.0 nM
[9] = molecular target: Serine/threonine-protein kinase MRCK gamma (Homo sapiens) (UniProt Q6DT37); conditions: Compound concentration 1000.0 nM
[10] = tested on: Epidermal growth factor receptor (Homo sapiens), P00533 [G719S]; conditions: Compound concentration 1000.0 nM
[11] = tested on: Epidermal growth factor receptor (Homo sapiens), P00533 [UNDEFINED MUTATION]; conditions: Compound concentration 1000.0 nM
[12] = molecular target: Ephrin type-B receptor 4 (Homo sapiens) (UniProt P54760); conditions: Compound concentration 1000.0 nM
[13] = molecular target: Receptor tyrosine-protein kinase erbB-2 (Homo sapiens) (UniProt P04626); conditions: Compound concentration 1000.0 nM
[14] = molecular target: Fibroblast growth factor receptor 1 (Homo sapiens) (UniProt P11362); conditions: Compound concentration 1000.0 nM
[15] = tested on: Receptor-type tyrosine-protein kinase FLT3 (Homo sapiens), P36888 [UNDEFINED MUTATION]; conditions: Compound concentration 1000.0 nM
[16] = molecular target: Tyrosine-protein kinase FRK (Homo sapiens) (UniProt P42685); conditions: Compound concentration 1000.0 nM
[17] = molecular target: G protein-coupled receptor kinase 4 (Homo sapiens) (UniProt P32298); conditions: Compound concentration 1000.0 nM
[18] = molecular target: Rhodopsin kinase GRK7 (Homo sapiens) (UniProt Q8WTQ7); conditions: Compound concentration 1000.0 nM
[19] = molecular target: Glycogen synthase kinase-3 alpha (Homo sapiens) (UniProt P49840); conditions: Compound concentration 1000.0 nM
[20] = molecular target: Serine/threonine-protein kinase haspin (Homo sapiens) (UniProt Q8TF76); conditions: Compound concentration 1000.0 nM
[21] = molecular target: Inhibitor of nuclear factor kappa-B kinase subunit beta (Homo sapiens) (UniProt O14920); conditions: Compound concentration 1000.0 nM
[22] = molecular target: Interleukin-1 receptor-associated kinase 3 (Homo sapiens) (UniProt Q9Y616); conditions: Compound concentration 1000.0 nM
[23] = molecular target: Tyrosine-protein kinase JAK1 (Homo sapiens) (UniProt P23458); conditions: Compound concentration 1000.0 nM
[24] = molecular target: Mitogen-activated protein kinase 9 (Homo sapiens) (UniProt P45984); conditions: Compound concentration 1000.0 nM
[25] = tested on: Mast/stem cell growth factor receptor Kit (Homo sapiens), P10721 [V559D,V654A]; conditions: Compound concentration 1000.0 nM
[26] = molecular target: MAP/microtubule affinity-regulating kinase 3 (Homo sapiens) (UniProt P27448); conditions: Compound concentration 1000.0 nM
[27] = molecular target: Dual specificity mitogen-activated protein kinase kinase 5 (Homo sapiens) (UniProt Q13163); conditions: Compound concentration 1000.0 nM
[28] = molecular target: Serine/threonine-protein kinase PAK 2 (Homo sapiens) (UniProt Q13177); conditions: Compound concentration 1000.0 nM
[29] = molecular target: Serine/threonine-protein kinase PAK 4 (Homo sapiens) (UniProt O96013); conditions: Compound concentration 1000.0 nM
[30] = molecular target: Cyclin-dependent kinase 15 (Homo sapiens) (UniProt Q96Q40); conditions: Compound concentration 1000.0 nM
[31] = tested on: Phosphatidylinositol 4,5-bisphosphate 3-kinase catalytic subunit alpha isoform (Homo sapiens), P42336 [E545K]; conditions: Compound concentration 1000.0 nM
[32] = molecular target: 1-phosphatidylinositol 3-phosphate 5-kinase (Homo sapiens) (UniProt Q9Y2I7); conditions: Compound concentration 1000.0 nM
[33] = molecular target: Serine/threonine-protein kinase PRP4 homolog (Homo sapiens) (UniProt Q13523); conditions: Compound concentration 1000.0 nM
[34] = molecular target: RAF proto-oncogene serine/threonine-protein kinase (Homo sapiens) (UniProt P04049); conditions: Compound concentration 1000.0 nM
[35] = molecular target: Ribosomal protein S6 kinase alpha-2 (Homo sapiens) (UniProt Q15349); conditions: Compound concentration 1000.0 nM
[36] = molecular target: Serine/threonine-protein kinase SIK2 (Homo sapiens) (UniProt Q9H0K1); conditions: Compound concentration 1000.0 nM
[37] = molecular target: Serine/threonine-protein kinase TAO1 (Homo sapiens) (UniProt Q7L7X3); conditions: Compound concentration 1000.0 nM
[38] = molecular target: Serine/threonine-protein kinase TAO3 (Homo sapiens) (UniProt Q9H2K8); conditions: Compound concentration 1000.0 nM
[39] = molecular target: Tyrosine-protein kinase TXK (Homo sapiens) (UniProt P42681); conditions: Compound concentration 1000.0 nM
[40] = molecular target: Non-receptor tyrosine-protein kinase TYK2 (Homo sapiens) (UniProt P29597); conditions: Compound concentration 1000.0 nM
[41] = molecular target: Serine/threonine-protein kinase WNK4 (Homo sapiens) (UniProt Q96J92); conditions: Compound concentration 1000.0 nM
[42] = molecular target: Mitogen-activated protein kinase kinase kinase 19 (Homo sapiens) (UniProt Q56UN5); conditions: Compound concentration 1000.0 nM
[43] = molecular target: D(2) dopamine receptor (Homo sapiens) (UniProt P14416); conditions: Compound concentration 10.0 uM
[44] = molecular target: Sodium-dependent serotonin transporter (Homo sapiens) (UniProt P31645); conditions: Compound concentration 10.0 uM
Mu-type opioid receptor = Mu-type opioid receptor (Homo sapiens, UniProt P35372); conditions: Compound concentration 10.0 uM
Chain of Mu-type opioid receptor (P35372 whole entry): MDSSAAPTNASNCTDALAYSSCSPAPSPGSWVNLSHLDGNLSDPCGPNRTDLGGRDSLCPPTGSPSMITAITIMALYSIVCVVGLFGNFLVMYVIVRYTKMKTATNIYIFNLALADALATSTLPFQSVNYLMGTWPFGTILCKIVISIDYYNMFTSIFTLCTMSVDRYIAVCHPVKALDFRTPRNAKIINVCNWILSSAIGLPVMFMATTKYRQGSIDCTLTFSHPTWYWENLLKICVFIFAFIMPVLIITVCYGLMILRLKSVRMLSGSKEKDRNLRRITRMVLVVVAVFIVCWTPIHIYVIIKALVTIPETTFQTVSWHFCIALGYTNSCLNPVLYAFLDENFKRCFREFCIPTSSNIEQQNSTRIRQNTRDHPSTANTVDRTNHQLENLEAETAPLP

Chain of Sodium-dependent serotonin transporter (Homo sapiens) (P31645 whole entry, looked up): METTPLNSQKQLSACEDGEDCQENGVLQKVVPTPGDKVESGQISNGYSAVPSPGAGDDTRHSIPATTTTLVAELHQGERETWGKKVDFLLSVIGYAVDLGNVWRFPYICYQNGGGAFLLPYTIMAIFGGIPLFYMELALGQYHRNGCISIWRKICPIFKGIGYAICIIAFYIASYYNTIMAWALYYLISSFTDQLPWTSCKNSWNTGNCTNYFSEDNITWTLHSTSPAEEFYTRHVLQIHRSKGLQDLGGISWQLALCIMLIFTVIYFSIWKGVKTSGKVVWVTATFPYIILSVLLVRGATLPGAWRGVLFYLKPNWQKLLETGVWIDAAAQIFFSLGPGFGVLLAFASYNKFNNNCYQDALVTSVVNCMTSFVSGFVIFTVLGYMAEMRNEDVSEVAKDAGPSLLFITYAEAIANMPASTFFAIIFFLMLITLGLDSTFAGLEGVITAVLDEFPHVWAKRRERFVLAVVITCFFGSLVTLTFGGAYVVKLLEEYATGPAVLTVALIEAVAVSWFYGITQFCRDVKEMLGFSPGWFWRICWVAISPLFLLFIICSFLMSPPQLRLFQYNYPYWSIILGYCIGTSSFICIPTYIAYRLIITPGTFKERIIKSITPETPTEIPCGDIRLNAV
Chain of Phosphatidylinositol 4,5-bisphosphate 3-kinase catalytic subunit alpha isoform (Homo sapiens), P42336 [E545K] (P42336 whole entry E545K, canonical isoform): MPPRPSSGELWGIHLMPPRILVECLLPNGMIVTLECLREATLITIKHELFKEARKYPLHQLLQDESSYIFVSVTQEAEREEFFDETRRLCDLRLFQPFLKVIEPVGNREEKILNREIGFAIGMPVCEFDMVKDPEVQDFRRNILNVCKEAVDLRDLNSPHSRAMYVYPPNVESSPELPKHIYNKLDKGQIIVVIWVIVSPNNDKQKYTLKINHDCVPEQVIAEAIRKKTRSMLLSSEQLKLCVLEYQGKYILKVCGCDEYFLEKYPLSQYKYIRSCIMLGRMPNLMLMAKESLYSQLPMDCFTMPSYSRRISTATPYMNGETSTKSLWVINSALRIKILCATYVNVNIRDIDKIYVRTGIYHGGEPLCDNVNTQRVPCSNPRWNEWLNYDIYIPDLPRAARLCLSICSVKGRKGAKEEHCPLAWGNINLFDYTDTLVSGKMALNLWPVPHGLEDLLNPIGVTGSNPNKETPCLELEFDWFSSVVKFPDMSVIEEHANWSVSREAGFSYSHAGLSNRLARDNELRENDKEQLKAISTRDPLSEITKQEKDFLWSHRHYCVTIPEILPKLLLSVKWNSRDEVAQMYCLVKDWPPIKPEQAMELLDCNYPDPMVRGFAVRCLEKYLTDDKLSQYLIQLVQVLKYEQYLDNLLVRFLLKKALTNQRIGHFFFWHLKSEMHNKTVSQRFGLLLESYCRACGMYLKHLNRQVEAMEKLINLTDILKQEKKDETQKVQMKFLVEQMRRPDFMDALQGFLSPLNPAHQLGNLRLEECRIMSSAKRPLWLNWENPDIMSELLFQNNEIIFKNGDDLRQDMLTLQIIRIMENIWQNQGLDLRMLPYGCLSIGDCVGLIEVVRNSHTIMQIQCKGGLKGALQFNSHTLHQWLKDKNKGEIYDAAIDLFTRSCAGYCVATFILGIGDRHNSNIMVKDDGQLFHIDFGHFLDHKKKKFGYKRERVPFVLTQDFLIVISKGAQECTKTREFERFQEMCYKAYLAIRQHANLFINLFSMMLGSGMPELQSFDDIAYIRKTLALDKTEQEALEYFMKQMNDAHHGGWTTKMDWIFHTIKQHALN
Chain of Serine/threonine-protein kinase BRSK1 (Homo sapiens) (Q8TDC3 whole entry): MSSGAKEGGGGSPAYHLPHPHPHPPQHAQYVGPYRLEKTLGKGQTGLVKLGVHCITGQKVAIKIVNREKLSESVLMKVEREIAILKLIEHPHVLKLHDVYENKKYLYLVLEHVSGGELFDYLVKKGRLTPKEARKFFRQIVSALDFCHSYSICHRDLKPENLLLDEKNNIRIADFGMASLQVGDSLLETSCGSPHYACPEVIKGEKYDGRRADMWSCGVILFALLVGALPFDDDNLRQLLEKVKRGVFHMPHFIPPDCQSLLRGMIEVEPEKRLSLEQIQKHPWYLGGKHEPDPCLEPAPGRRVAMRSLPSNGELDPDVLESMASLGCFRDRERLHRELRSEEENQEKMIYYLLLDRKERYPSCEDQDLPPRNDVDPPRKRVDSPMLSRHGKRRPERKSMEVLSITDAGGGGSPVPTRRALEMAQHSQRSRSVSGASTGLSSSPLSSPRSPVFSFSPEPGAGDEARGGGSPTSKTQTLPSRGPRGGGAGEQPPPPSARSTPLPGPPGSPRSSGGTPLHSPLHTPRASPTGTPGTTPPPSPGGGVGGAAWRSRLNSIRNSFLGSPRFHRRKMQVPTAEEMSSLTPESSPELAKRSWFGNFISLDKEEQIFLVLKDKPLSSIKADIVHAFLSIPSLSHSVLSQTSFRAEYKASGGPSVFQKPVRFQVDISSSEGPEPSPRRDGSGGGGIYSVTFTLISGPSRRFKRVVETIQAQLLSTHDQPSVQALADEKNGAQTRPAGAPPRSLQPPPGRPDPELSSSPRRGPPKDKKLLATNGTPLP
Chain of Bone morphogenetic protein receptor type-2 (Homo sapiens) (Q13873 whole entry): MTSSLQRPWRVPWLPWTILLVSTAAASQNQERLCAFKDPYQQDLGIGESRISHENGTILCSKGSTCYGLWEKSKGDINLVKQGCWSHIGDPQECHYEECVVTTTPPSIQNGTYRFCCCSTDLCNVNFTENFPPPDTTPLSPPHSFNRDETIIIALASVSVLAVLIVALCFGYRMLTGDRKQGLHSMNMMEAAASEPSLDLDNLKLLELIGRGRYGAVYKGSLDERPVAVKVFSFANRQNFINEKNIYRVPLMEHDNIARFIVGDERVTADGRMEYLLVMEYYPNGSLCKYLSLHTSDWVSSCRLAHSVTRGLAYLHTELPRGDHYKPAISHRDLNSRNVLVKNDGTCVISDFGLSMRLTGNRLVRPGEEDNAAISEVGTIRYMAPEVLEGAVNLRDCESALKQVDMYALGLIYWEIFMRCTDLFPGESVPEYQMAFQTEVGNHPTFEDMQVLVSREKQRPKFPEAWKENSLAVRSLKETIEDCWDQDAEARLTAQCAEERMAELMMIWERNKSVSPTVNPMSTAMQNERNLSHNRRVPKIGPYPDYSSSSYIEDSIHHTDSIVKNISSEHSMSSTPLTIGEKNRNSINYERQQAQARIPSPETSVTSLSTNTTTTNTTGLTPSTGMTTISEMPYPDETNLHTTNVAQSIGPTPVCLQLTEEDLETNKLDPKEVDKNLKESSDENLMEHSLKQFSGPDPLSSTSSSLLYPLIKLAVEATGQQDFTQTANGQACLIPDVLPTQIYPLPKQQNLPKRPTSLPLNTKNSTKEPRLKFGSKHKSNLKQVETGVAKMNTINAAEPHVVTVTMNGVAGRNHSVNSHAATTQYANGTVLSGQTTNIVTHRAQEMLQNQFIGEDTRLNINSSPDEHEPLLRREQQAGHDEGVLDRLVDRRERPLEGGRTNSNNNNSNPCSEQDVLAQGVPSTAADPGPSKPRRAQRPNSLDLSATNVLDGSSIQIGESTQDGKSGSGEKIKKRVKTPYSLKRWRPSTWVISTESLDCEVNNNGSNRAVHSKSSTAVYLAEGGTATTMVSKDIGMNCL
Chain of Tyrosine-protein kinase BTK (Homo sapiens) (Q06187 whole entry): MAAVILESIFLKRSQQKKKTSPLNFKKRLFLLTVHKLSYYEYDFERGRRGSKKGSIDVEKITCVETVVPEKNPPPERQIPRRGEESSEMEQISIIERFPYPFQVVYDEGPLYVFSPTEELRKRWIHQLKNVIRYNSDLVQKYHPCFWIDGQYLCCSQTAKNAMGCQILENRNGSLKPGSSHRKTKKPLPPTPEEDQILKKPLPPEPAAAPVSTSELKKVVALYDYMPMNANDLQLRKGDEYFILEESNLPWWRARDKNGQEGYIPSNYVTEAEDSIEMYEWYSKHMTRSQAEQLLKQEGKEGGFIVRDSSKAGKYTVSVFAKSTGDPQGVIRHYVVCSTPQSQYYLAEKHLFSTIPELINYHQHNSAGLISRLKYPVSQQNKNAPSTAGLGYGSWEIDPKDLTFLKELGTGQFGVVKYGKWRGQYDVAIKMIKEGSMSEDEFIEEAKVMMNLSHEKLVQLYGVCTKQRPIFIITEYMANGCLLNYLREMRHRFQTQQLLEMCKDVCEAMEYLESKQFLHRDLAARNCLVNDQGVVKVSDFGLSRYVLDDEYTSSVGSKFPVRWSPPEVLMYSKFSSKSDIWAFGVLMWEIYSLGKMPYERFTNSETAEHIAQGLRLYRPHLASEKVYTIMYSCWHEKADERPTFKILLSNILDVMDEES
Chain of Glycogen synthase kinase-3 alpha (Homo sapiens) (P49840 2-483 limits assumed): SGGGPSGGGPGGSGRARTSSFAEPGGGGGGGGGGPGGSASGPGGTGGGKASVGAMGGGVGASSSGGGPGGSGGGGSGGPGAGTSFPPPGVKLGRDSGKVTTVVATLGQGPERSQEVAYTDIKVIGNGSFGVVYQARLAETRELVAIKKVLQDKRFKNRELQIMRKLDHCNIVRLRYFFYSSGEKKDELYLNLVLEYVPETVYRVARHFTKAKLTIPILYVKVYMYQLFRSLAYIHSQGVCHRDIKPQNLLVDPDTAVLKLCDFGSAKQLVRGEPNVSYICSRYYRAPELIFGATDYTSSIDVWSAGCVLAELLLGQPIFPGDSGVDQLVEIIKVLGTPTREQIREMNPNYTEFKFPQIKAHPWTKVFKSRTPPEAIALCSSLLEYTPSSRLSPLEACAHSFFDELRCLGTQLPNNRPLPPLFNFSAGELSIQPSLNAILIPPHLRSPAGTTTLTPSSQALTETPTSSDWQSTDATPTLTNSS

`CCCCN(CCCC)C(=O)CN1C[C@H](c2cc(OC)c3c(c2)OCO3)[C@@H](C(=O)O)[C@@H]1CC(C)(C)CCC` [ABT-546] was tested, and the residual activity [1] was 100%, the residual activity [2] was 80% and the residual activity [3] was 90.4%. The residual activity [4] was 100%, the residual activity [5] was 61.3% and the residual activity [6] was 86.5%. It also gave a residual activity [7] of 100%, a residual activity [8] of 62.8% and a residual activity [9] of 100%. For the same compound, the residual activity [10] was 100%, the residual activity [11] was 79.8% and the residual activity [12] was 100%. It also gave a residual activity [13] of 95.6%, a residual activity [14] of 89.4% and a residual activity [15] of 100%. For the same compound, the residual activity [16] was 100%, the residual activity [17] was 100% and the residual activity [18] was 98.3%. The residual activity [19] was 92.3%, the residual activity [20] was 75.8% and the residual activity [21] was 81.5%. The residual activity [22] was 100%, the residual activity [23] was 84.7% and the residual activity [24] was 100%. The residual activity [25] was 100%, the residual activity [26] was 98.7% and the residual activity [27] was 100%. For the same compound, the residual activity [28] was 100%, the residual activity [29] was 100% and the residual activity [30] was 100%. It also gave a residual activity [31] of 70%, a residual activity [32] of 100% and a residual activity [33] of 100%. For the same compound, the residual activity [34] was 100%, the residual activity [35] was 100% and the residual activity [36] was 100%. For the same compound, the residual activity [37] was 55.6%, the residual activity [38] was 63.2% and the residual activity [39] was 94.3%. It also gave a residual activity [40] of 85.9%, a residual activity [41] of 97.9% and a residual activity [42] of 90.3%. For the same compound, the inhibition [43] was 21.3%, the inhibition [44] was 15.3% and the inhibition (Mu-type opioid receptor) was 14.2%.
`CCCCN(CCCC)C(=O)CN1C[C@@H](c2cc(OC)c3c(c2)OCO3)[C@H](C(=O)O)[C@H]1CC(C)(C)CCC` [A-545] showed a residual activity [1] of 100%, a residual activity [2] of 86.7% and a residual activity [3] of 92.3%. For the same compound, the residual activity [4] was 88.9%, the residual activity [5] was 100% and the residual activity [6] was 100%. It also gave a residual activity [7] of 98.3%, a residual activity [8] of 100% and a residual activity [9] of 94.4%. For the same compound, the residual activity [10] was 100%, the residual activity [11] was 75.9% and the residual activity [12] was 98.5%. It also gave a residual activity [13] of 92.1%, a residual activity [14] of 100% and a residual activity [15] of 100%. It also gave a residual activity [16] of 100%, a residual activity [17] of 95.8% and a residual activity [18] of 90.8%. For the same compound, the residual activity [19] was 79.9%, the residual activity [20] was 100% and the residual activity [21] was 100%. It also gave a residual activity [22] of 85%, a residual activity [23] of 100% and a residual activity [24] of 100%. For the same compound, the residual activity [25] was 100%, the residual activity [26] was 93.7% and the residual activity [27] was 100%. It also gave a residual activity [28] of 83.5%, a residual activity [29] of 90.2% and a residual activity [30] of 93.8%. The residual activity [31] was 91%, the residual activity [32] was 81.4% and the residual activity [33] was 99.3%. For the same compound, the residual activity [34] was 93.3%, the residual activity [35] was 90.2% and the residual activity [36] was 100%. It also gave a residual activity [37] of 97.4%, a residual activity [38] of 67.9% and a residual activity [39] of 100%. For the same compound, the residual activity [40] was 95.8%, the residual activity [41] was 100% and the residual activity [42] was 100%. For the same compound, the inhibition [43] was 21.3%, the inhibition [44] was -7.99% and the inhibition (Mu-type opioid receptor) was 58.5%.
